Results: ChEMBL document CHEMBL4308897, “Antileishmanial activity and cytotoxicity of ent-beyerene diterpenoids” (Bioorg Med Chem, 2019)
Activity calls are given as the source filed them. No cut-off for these calls is given here.

How the values were obtained:
Leishmania braziliensis [1] = assay: Antileishmanial activity against Leishmania (Viannia) braziliensis HMOM/COL/88/UA301-EGFP infected in golden hamster assessed as relapse at 200 ug administered intralesionally twice per week for 4 weeks measured 3 months post last dose relative to control; assay type: functional, organism-based
Syrian golden hamster [2] = assay: Antiinflammatory activity in golden hamster infected with Leishmania (Viannia) braziliensis HMOM/COL/88/UA301-EGFP assessed as re-epithelialization in skin at 200 ug administered intralesionally twice per week for 4 weeks measured 3 months post last dose by histopathological analysis; assay type: functional, organism-based; conditions: Mesocricetus auratus
Leishmania braziliensis [3] = assay: Antileishmanial activity against Leishmania (Viannia) braziliensis HMOM/COL/88/UA301-EGFP infected in golden hamster assessed as cure rate at 200 ug administered intralesionally twice per week for 4 weeks measured 3 months post last dose relative to control; assay type: functional, organism-based
Leishmania braziliensis [4] = assay: Antileishmanial activity against Leishmania (Viannia) braziliensis HMOM/COL/88/UA301-EGFP infected in golden hamster assessed as clinical failure at 200 ug administered intralesionally twice per week for 4 weeks measured 3 months post last dose relative to control; assay type: functional, organism-based
Syrian golden hamster [5] = assay: Antiinflammatory activity in golden hamster infected with Leishmania (Viannia) braziliensis HMOM/COL/88/UA301-EGFP assessed as migration of plasmocytes in skin at 200 ug administered intralesionally twice per week for 4 weeks measured 3 months post last dose by histopathological analysis; assay type: functional, organism-based; conditions: Mesocricetus auratus
Syrian golden hamster [6] = assay: Antiinflammatory activity in golden hamster infected with Leishmania (Viannia) braziliensis HMOM/COL/88/UA301-EGFP assessed as migration of lymphocytes in skin at 200 ug administered intralesionally twice per week for 4 weeks measured 3 months post last dose by histopathological analysis; assay type: functional, organism-based; conditions: Mesocricetus auratus
Syrian golden hamster [7] = assay: Antiinflammatory activity in golden hamster infected with Leishmania (Viannia) braziliensis HMOM/COL/88/UA301-EGFP assessed as migration of macrophages in skin at 200 ug administered intralesionally twice per week for 4 weeks measured 3 months post last dose by histopathological analysis; assay type: functional, organism-based; conditions: Mesocricetus auratus
Leishmania braziliensis [8] = assay: Antileishmanial activity against Leishmania (Viannia) braziliensis HMOM/COL/88/UA301-EGFP infected in golden hamster assessed as clinical improvement at 200 ug administered intralesionally twice per week for 4 weeks measured 3 months post last dose relative to control; assay type: functional, organism-based
[9] = Cytotoxicity against human U937 cells after 72 hrs by MTT assay; assay type: cell-based, U-937; conditions: read-out: LC50
Syrian golden hamster [10] = assay: Antiinflammatory activity in golden hamster infected with Leishmania (Viannia) braziliensis HMOM/COL/88/UA301-EGFP assessed as migration of macrophages in skin at 2.6% administered topically as cream formulation for 20 days and measured 3 months post last treatment by histopathological analysis; assay type: functional, organism-based; conditions: Mesocricetus auratus
[11] = Hepatotoxicity in golden hamster infected with Leishmania (Viannia) braziliensis HMOM/COL/88/UA301-EGFP assessed as infiltration of macrophages at 2.6% administered topically as cream formulation for 20 days measured 90 days post last dose by histopathological analysis; assay type: toxicity, Mesocricetus auratus; conditions: in vivo, topical_or_ocular, 2160 h
[12] = Toxicity in golden hamster infected with Leishmania (Viannia) braziliensis HMOM/COL/88/UA301-EGFP assessed as effect on serum creatinine level at 2.6% administered topically as cream formulation for 20 days and measured day 8 post last treatment; set-up: species or system Mesocricetus auratus; conditions: in vivo, topical_or_ocular, 480 h
Syrian golden hamster [13] = assay: Antiinflammatory activity in golden hamster infected with Leishmania (Viannia) braziliensis HMOM/COL/88/UA301-EGFP assessed as migration of lymphocytes in skin at 2.6% administered topically as cream formulation for 20 days and measured 3 months post last treatment by histopathological analysis; assay type: functional, organism-based; conditions: Mesocricetus auratus
[14] = Selectivity index, ratio of LC50 for human U937 cells to EC50 for Leishmania (Viannia) braziliensis HMOM/COL/88/UA301-EGFP intracellular amastigotes infected in human U937 cells; assay type: toxicity, cell-based; conditions: read-out: Selectivity Index
Leishmania braziliensis [15] = assay: Antileishmanial activity against Leishmania (Viannia) braziliensis HMOM/COL/88/UA301-EGFP infected in golden hamster assessed as cure rate at 2.6% administered topically as cream formulation for 20 days measured 3 months post last dose relative to control; assay type: functional
Syrian golden hamster [16] = assay: Antiinflammatory activity in golden hamster infected with Leishmania (Viannia) braziliensis HMOM/COL/88/UA301-EGFP assessed as re-epithelialization in skin at 2.6% administered topically as cream formulation for 20 days and measured 3 months post last treatment by histopathological analysis; assay type: functional, organism-based; conditions: Mesocricetus auratus
[17] = Renal toxicity in golden hamster infected with Leishmania (Viannia) braziliensis HMOM/COL/88/UA301-EGFP assessed as vacuolar degeneration at 2.6% administered topically as cream formulation for 20 days measured 90 days post last dose by histopathological analysis; set-up: species or system Mesocricetus auratus; conditions: in vivo, topical_or_ocular, 2160 h
Leishmania braziliensis [18] = assay: Antileishmanial activity against Leishmania (Viannia) braziliensis HMOM/COL/88/UA301-EGFP infected in golden hamster assessed as relapse at 2.6% administered topically as cream formulation for 20 days measured 3 months post last dose relative to control; assay type: functional
[19] = Toxicity in golden hamster infected with Leishmania (Viannia) braziliensis HMOM/COL/88/UA301-EGFP assessed as effect on serum alanine aminotransferase level at 2.6% administered topically as cream formulation for 20 days and measured day 8 post last treatment; set-up: species or system Mesocricetus auratus; conditions: in vivo, topical_or_ocular, 480 h
Leishmania braziliensis [20] = assay: Antileishmanial activity against Leishmania (Viannia) braziliensis HMOM/COL/88/UA301-EGFP intracellular amastigotes infected in human U937 cells after 72 hrs by flow cytometric analysis; assay type: functional, organism-based; conditions: HMOM/COL/88/UA301, U-937, 72 h
[21] = Toxicity in golden hamster infected with Leishmania (Viannia) braziliensis HMOM/COL/88/UA301-EGFP assessed as change in body weight at 2.6% administered topically as cream formulation for 20 days measured up to 90 days post last dose; set-up: species or system Mesocricetus auratus; conditions: in vivo, topical_or_ocular
[22] = Hepatotoxicity in golden hamster infected with Leishmania (Viannia) braziliensis HMOM/COL/88/UA301-EGFP assessed as infiltration of lymphocytes at 2.6% administered topically as cream formulation for 20 days measured 90 days post last dose by histopathological analysis; assay type: toxicity, Mesocricetus auratus; conditions: in vivo, topical_or_ocular, 2160 h
Syrian golden hamster [23] = assay: Antiinflammatory activity in golden hamster infected with Leishmania (Viannia) braziliensis HMOM/COL/88/UA301-EGFP assessed as migration of plasmocytes in skin at 2.6% administered topically as cream formulation for 20 days and measured 3 months post last treatment by histopathological analysis; assay type: functional, organism-based; conditions: Mesocricetus auratus
[24] = Hepatotoxicity in golden hamster infected with Leishmania (Viannia) braziliensis HMOM/COL/88/UA301-EGFP assessed as hemosiderin pigmentation at 2.6% administered topically as cream formulation for 20 days measured 90 days post last dose by histopathological analysis; assay type: toxicity, Mesocricetus auratus; conditions: in vivo, topical_or_ocular, 2160 h
[25] = Hepatotoxicity in golden hamster infected with Leishmania (Viannia) braziliensis HMOM/COL/88/UA301-EGFP assessed as vacuolar degeneration at 2.6% administered topically as cream formulation for 20 days measured 90 days post last dose by histopathological analysis; assay type: toxicity, Mesocricetus auratus; conditions: in vivo, topical_or_ocular, 2160 h
Leishmania braziliensis [26] = assay: Antileishmanial activity against Leishmania (Viannia) braziliensis HMOM/COL/88/UA301-EGFP infected in golden hamster assessed as clinical improvement at 2.6% administered topically as cream formulation for 20 days measured 3 months post last dose relative to control; assay type: functional
Leishmania braziliensis [27] = assay: Antileishmanial activity against Leishmania (Viannia) braziliensis HMOM/COL/88/UA301-EGFP infected in golden hamster assessed as clinical failure at 2.6% administered topically as cream formulation for 20 days measured 3 months post last dose relative to control; assay type: functional
[28] = Toxicity in golden hamster infected with Leishmania (Viannia) braziliensis HMOM/COL/88/UA301-EGFP assessed as effect on serum BUN level at 2.6% administered topically as cream formulation for 20 days and measured day 8 post last treatment; set-up: species or system Mesocricetus auratus; conditions: in vivo, topical_or_ocular, 480 h
[29] = Hepatotoxicity in golden hamster infected with Leishmania (Viannia) braziliensis HMOM/COL/88/UA301-EGFP assessed as congestion at 2.6% administered topically as cream formulation for 20 days measured 90 days post last dose by histopathological analysis; assay type: toxicity, Mesocricetus auratus; conditions: in vivo, topical_or_ocular, 2160 h

Compound: MEGLUMINE ANTIMONATE
- Activity (Leishmania braziliensis [1]): 16.7%
- Activity (Syrian golden hamster [2]): Active
- Activity (Leishmania braziliensis [3]): 66.7%
- Activity (Leishmania braziliensis [4]): 0%
- Activity (Syrian golden hamster [5]): Active
- Activity (Syrian golden hamster [6]): Active
- Activity (Syrian golden hamster [7]): Active
- Activity (Leishmania braziliensis [8]): 16.7%

Compound: C[C@]12C=C[C@@]3(CC[C@@H]4[C@@](C)(CO)CCC[C@@]4(C)[C@@H]3CC1)C2
- CC50 at 72 h [9]: 122 µM
- Activity (Syrian golden hamster [10]): Active
- Activity [11]: Toxic
- Activity [12]: Non-Toxic
- Activity (Syrian golden hamster [13]): Active
- selectivity ratio [14]: 7.7
- Activity (Leishmania braziliensis [15]): 50%
- Activity (Syrian golden hamster [16]): Active
- Activity [17]: Toxic
- Activity (Leishmania braziliensis [18]): 16.7%
- Activity [19]: Non-Toxic
- EC50 (Leishmania braziliensis [20]): 18.1 µM
- Activity [21]: Non-Toxic
- Activity [22]: Toxic
- Activity (Syrian golden hamster [23]): Active
- Activity [24]: Toxic
- Activity [25]: Toxic
- Activity (Leishmania braziliensis [26]): 0%
- Activity (Leishmania braziliensis [27]): 33.3%
- Activity [28]: Non-Toxic
- Activity [29]: Toxic
